Where “and” joins values, the source holds several entries; their conditions need not be identical. Equal entries are not always repeated.
What was measured:
Assay type in all cases: physicochemical
[1] = Powder X-ray diffraction at different temperatures under vacuum; settings: amorphous (produced by freeze-drying)
Experimental: The Powder X-Ray Diffraction (Bruker, Rheinstetten, Germany) patterns were acquired at different temperatures using Cu-K α radiation (λ=1.5406 Å). The data were collected over an angular range of 2-40°2θ using a step size of 0,014°2θ and a step time of 2 sec.

[2] = Particle size analysis by powder laser diffraction (HELIOS, RODOS dry powder feeder)
Experimental: Micronised powders were prepared with a MC Jetmill 50 (Jetpharma, Balerna, Switzerland). The micronised powder underwent different conditioning settings in a climate chamber ([…] GmbH, […], Germany). The temperature was set at 25° C. and 40° C. and the relative humidity was varied in a field between 45% and 75%, respectively. For “dry” conditioning settings the powders were prepared at a temperature of 70° C. in a thermal oven (Heraeus, Hanau, Germany). […] Samples were introduced through the RODOS dry powder feeder. The supply pressure of the injector was at 3 bar.

[3] = Isothermal microcalorimetry (amorphous content / recrystallisation); settings: for amorphous amount: micronised, stored in opened TWO-Glass at room temperature (21.5° C., 42% RH)
Experimental: The micronised powder underwent different conditioning settings in a climate chamber (Weiβ Klimatechnik GmbH, Reiskirchen-Lindstruth, Germany). The temperature was set at 25° C. and 40° C. and the relative humidity was varied in a field between 45% and 75%, respectively.
For “dry” conditioning settings the powders were prepared at a temperature of 70° C. in a thermal oven (Heraeus, Hanau, Germany).
The powder was investigated using a Thermal Activity Monitor (Type 2277, Thermometric, Sweden) at 25° C. The samples were weighted into a glass ampoule and a tube was added containing a saturated salt solution. The ampoule was sealed and equilibrated in the calorimeter for 5 min before lowering it into the measuring site.

[4] = Recording of humidity (sorption behaviour of micronised, wrapped powder); settings: unconditioned, stored at 55% RH
Experimental: Using a humidity sensor (Ebro, Ingolstadt, Germany) the sorption behaviour of the micronised and wrapped powder was measured. With the help of a humidity sensor it is possible to observe the sorption behaviour of the micronised, in a PE-bag wrapped, powder. Approx. 30 g of the freshly grinded substance are wrapped in a PE-bag together with a humidity sensor and afterwards closed.

[5] = Table 1 batch, micronised powder, before conditioning
[6] = Table 2 batch, micronised powder, before conditioning
[7] = micronised powder conditioned 5 hours by 70° C. (dry)

CC(C)(C)NC[C@H](O)c1ccc(O)c(CO)c1 (racemic) [salbutamol sulphate]
recrystallisation of amorphous material [1]: does not recrystallize under exclusion of humidity
effect of additional conditioning duration on particle size ([2]; 40° C. and 75% RH beyond five hours, storage under same conditions for two weeks): no effect on the particle size
Particle size 10% < [2, 5]: 0.83 μm
Particle size 50% < [2, 5]: 1.94 μm
Particle size 90% < [2, 5]: 4.53 μm
Particle size 10% < [2, 6]: 0.70 μm
Particle size 50% < [2, 6]: 1.30 μm and 1.53 μm
Particle size 90% < [2, 6]: 3.42 μm
Particle size 10% < ([2]; conditioned 24 h 55% RH 25° C.): 0.78 μm
Particle size 50% < ([2]; conditioned 24 h 55% RH 25° C.): 1.66 μm
Particle size 90% < ([2]; conditioned 24 h 55% RH 25° C.): 3.56 μm
Particle size 10% < ([2]; conditioned 24 h 55% RH 40° C.): 0.79 μm
Particle size 50% < ([2]; conditioned 24 h 55% RH 40° C.): 1.68 μm
Particle size 90% < ([2]; conditioned 24 h 55% RH 40° C.): 3.59 μm
Particle size 10% < ([2]; conditioned 24 h 65% RH 25° C.): 0.82 μm
Particle size 50% < ([2]; conditioned 24 h 65% RH 25° C.): 1.76 μm
Particle size 90% < ([2]; conditioned 24 h 65% RH 25° C.): 3.67 μm
Particle size 10% < ([2]; conditioned 24 h 65% RH 40° C.): 0.80 μm
Particle size 50% < ([2]; conditioned 24 h 65% RH 40° C.): 1.72 μm
Particle size 90% < ([2]; conditioned 24 h 65% RH 40° C.): 3.64 μm
Particle size 10% < ([2]; conditioned 24 h 75% RH 25° C.): 0.83 μm
Particle size 50% < ([2]; conditioned 24 h 75% RH 25° C.): 1.77 μm
Particle size 90% < ([2]; conditioned 24 h 75% RH 25° C.): 3.69 μm
Particle size 10% < ([2]; conditioned 24 h 75% RH 40° C.): 0.84 μm
Particle size 50% < ([2]; conditioned 24 h 75% RH 40° C.): 1.78 μm
Particle size 90% < ([2]; conditioned 24 h 75% RH 40° C.): 3.69 μm
uncontrolled particle growth in terms of particle diameters ([2]; dry conditioning, then four weeks of storage): up to 16%
Particle size 10% < [2, 7]: 0.82 μm
Particle size 50% < [2, 7]: 1.90 μm
Particle size 90% < [2, 7]: 4.45 μm
particle size on storage without conditioning ([2]; wrapped, stored 21-23° C., approx. 45% RH, up to three months): shows likewise particle growth
recrystallisation after dry conditioning ([3]; 70° C. for 5 hours): does not lead to recrystallisation
reduction of the amorphous fraction ([3]; conditioning at 25° C. and 45% RH for 24 hours): 2.5%
crystallinity after conditioning ([3]; five hours of conditioning at 40° C. and 75% RH, partially amorphous powder): complete crystalline material
amorphous content ([3]; initial sample (micronised, before conditioning)): 7.7%
amorphous amount ([3]; after 1st week): 6.5%
amorphous amount ([3]; after 2nd week): 5.4%
amorphous amount ([3]; after 4th week): 4.5%
amorphous content ([3]; unconditioned powder, wrapped, stored four weeks at 21-23° C., approx. 45% RH): < 0.5%
recrystallisation on storage [4]: completely recrystallized within one week
